Data on 2 compounds can be found in patent publication US20200030278A1, “PHARMACEUTICAL COMPOSITIONS OF METAP-2 INHIBITORS” (Zafgen, Inc., priority 2017, published 2020).

Data set [1] concerns plasma proteins. As to the kind of experiment: Plasma protein binding, summary over species. Type of data set: in vitro ADME. The settings on record: species not specified.
Data set [2] has as its system plasma proteins. As to the kind of experiment: Protein binding in dog plasma (dialysis). The class given is in vitro ADME. The conditions noted are these: plasma; dog, summary over concentrations; read-out: bound to plasma proteins.
Data set [3] is described as follows: Pharmacokinetics after intravenous infusion in humans. The settings on record: Human, 30-minute IV Infusion, 2.0 mg (0.9 mg/m^2). Type of data set: in vivo.
For data set [4] the following is noted: clinical trials in patients with obesity, PWS, or type 2 diabetes; cited from earlier work.

`CO[C@@H]1[C@H](OC(=O)N2CC(CCN3CCOCC3)C2)CC[C@]2(CO2)[C@H]1[C@@]1(C)O[C@@H]1CC=C(C)C` [Compound A]: the fraction bound to plasma proteins in the data set on plasma proteins [1] was 0.3 to 0.7. Besides, in the data set with plasma proteins [2], the fraction unbound at 4 h was in the range of 0.3 to 0.6.
In data set [3], `CO[C@@H]1[C@H](OC(=O)/C=C/c2ccc(OCCN(C)C)cc2)CC[C@]2(CO2)[C@H]1[C@@]1(C)O[C@@H]1CC=C(C)C` [beloranib, reference compound] displayed a kel of 0.120 ± 0.070 h⁻¹. Moreover, in data set [3] (in vivo), the AUC(0-inf) worked out at 5.82 ± 2.46 ng·h/mL, the clearance was 64.5 mL/min/kg and the half-life was 424 ± 160 min. In addition, the Vd in data set [3] (in vivo, read-out: Vdss) came out at 25.4 ± 19.2 L/kg. Moreover, in data set [4], the “adverse events (AEs)” value is “venous thromboembolism”.
